Test results reported in patent US10047051B2, “Substituted pyridines and method of use” (AbbVie S.á{acute over (.)}r.l., priority 2015, dated 2018).

Legend:
Format in all cases: cell-based
CFTR G551D mutant = biological target: T1, CFTR G551D mutant (Homo sapiens, UniProt P13569, G551D); experiment: YFP-halide influx assay for the CFTR-G551D mutation (HEK293 cells); settings: forskolin 10.67 μM
T1 construct: expressed in transfected cells; host or cells: HEK293 cells, reverse transfection with plasmids
Method in brief: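 Channel opening read as I⁻-driven quenching of a YFP H148Q/I152L/F47L reporter over 7 s post-injection, expressed as 1−F/F0 and fitted against concentration for EC50. Cells were HEK293 co-transfected at seeding with G551D CFTR plus reporter, then grown 24 h at 37 °C, 5% CO2.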

CFTR ΔF508 mutant = biological target: T2, CFTR ΔF508 mutant (Homo sapiens, UniProt P13569, DEL508-508); experiment: YFP-halide influx assay for the CFTR-ΔF508 mutation (CFBE41o- cells); settings: forskolin 10.67 μM; for EC50: from (1−F/F0) vs concentration plot
T2 construct: expressed in transfected cells; host or cells: CFBE41o- cells, adenoviral transduction
Method in brief: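 EC50 derived from plotting 1−F/F0 (fluorescence 36 s after iodide injection over pre-injection value) against compound concentration. Cells: CFBE41o- transduced with ΔF508-CFTR and YFP quench reporter, corrected 24 h at 27° C or by a CFTR modulator at 37° C.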

CFTR-S549N = biological target: T3, CFTR-S549N (Homo sapiens, UniProt P13569, S549N); experiment: YFP-halide influx assay for the CFTR-S549N; set-up: % Activation: concentration or dose not given beside the values
T3 construct: expressed in transfected cells
Text: (§1) The YFP halide influx assay measured the functionality of the cystic fibrosis Transmembrane Conductance regulator (CFTR) channels. The assay was used to evaluate the capacity of compounds to increase the channel opening of existing mutant CFTR channels in the membrane. It makes use of the observation that the yellow fluorescent protein (YFP) variant YFP H148Q, I152L, F47L has its fluorescence substantially quenched by halide ions like Cl^− and I^− (Galietta, L. J. V., Haggie, P. M., Verkman, A. S., 2001. Green fluorescent protein-based halide indicators with improved chloride and iodide affinities. FEBS Lett. 499, 220-224. doi:10.1016/S0014-5793(01)02561-3).
(§2) For this purpose, HEK293-cells were seeded in 96 well plates. During seeding, the cells were reverse-transfected with plasmid vectors that direct the expression of the CFTR G551D mutant and of the YFP reporter. Cells were incubated at 37° C., 5% CO2 for 24 hours so as to allow for sufficient expression of the CFTR protein.
(§3) The I^−-induced quenching of fluorescence was recorded immediately after injection of I^− for 7 seconds. The capacity of a compound to increase the channel opening was directly correlated with the decrease in fluorescence, and was expressed as (1−(fluorescence after 7 seconds (F)/fluorescence before injection (F0))) and an EC50 was derived from a (1−F/F0) vs compound concentration plot.
(§4) Similar YHA assays were developed for other channel gating defective or channel conductance defective CFTR mutants to determine effect of compound on channel activity. Examples of mutants are G178R, G1349D, S549N, R117H, R334W. This assay is also used for additional class I CFTR mutants, including G542X, W1282X; class II mutants including N1303K, and for class III mutants including S1251N; or wild-type CFTR.

CFTR-R117H = biological target: T4, CFTR-R117H (Homo sapiens, UniProt P13569, R117H); experiment: YFP-halide influx assay for the CFTR-R117H
T4 construct: expressed in transfected cells
Text: as §1, §2, §3, §4

CFTR-G178R = biological target: T5, CFTR-G178R (Homo sapiens, UniProt P13569, G178R); experiment: YFP-halide influx assay for the CFTR-G178R
T5 construct: expressed in transfected cells
Text: as §1, §2, §3, §4

CFTR-G1349D = biological target: T6, CFTR-G1349D (Homo sapiens, UniProt P13569, G1349D); experiment: YFP-halide influx assay for the CFTR-G1349D
T6 construct: expressed in transfected cells
Text: as §1, §2, §3, §4

T1 sequence (P13569 whole entry G551D): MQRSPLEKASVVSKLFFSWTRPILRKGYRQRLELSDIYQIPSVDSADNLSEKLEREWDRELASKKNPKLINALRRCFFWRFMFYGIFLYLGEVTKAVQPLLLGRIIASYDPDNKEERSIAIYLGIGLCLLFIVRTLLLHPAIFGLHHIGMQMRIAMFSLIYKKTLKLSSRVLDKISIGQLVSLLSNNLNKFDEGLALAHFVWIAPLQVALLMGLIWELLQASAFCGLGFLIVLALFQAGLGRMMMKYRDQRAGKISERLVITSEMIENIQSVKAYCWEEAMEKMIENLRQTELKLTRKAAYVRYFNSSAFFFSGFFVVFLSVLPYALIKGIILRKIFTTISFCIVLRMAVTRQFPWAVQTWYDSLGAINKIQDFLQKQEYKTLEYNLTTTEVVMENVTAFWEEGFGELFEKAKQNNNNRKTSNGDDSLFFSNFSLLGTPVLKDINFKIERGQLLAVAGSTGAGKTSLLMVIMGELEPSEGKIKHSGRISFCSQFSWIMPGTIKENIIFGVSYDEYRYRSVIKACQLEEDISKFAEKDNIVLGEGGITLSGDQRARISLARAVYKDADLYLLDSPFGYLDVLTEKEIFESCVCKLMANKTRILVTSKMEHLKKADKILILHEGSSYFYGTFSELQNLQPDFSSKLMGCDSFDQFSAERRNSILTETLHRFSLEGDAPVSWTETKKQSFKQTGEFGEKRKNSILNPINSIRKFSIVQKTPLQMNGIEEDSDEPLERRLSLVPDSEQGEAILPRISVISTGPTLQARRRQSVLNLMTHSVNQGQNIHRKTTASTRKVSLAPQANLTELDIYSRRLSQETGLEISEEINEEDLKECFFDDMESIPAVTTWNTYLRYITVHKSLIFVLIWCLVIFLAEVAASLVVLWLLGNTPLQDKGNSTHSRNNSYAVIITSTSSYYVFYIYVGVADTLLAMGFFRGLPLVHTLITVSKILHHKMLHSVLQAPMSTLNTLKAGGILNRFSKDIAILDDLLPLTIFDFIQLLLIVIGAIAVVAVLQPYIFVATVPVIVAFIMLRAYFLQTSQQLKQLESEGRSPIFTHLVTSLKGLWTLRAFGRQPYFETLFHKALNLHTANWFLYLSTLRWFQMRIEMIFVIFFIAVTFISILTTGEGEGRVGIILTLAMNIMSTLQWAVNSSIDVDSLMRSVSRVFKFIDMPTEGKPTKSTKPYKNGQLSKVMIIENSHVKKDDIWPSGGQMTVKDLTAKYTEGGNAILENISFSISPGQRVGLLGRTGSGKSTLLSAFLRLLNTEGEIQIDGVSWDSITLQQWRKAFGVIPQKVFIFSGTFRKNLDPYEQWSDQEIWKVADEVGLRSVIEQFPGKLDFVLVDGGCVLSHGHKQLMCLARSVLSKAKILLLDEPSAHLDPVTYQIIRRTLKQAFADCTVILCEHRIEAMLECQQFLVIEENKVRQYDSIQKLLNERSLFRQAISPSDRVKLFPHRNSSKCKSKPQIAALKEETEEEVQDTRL
T6 sequence (P13569 whole entry G1349D): as the sequence (P13569 whole entry G551D) above, with D551G, G1349D counted along it
T4 sequence (P13569 whole entry R117H): as the sequence (P13569 whole entry G551D) above, with R117H, D551G counted along it
T2 sequence (P13569 with tags, fused parts or gaps DEL508-508): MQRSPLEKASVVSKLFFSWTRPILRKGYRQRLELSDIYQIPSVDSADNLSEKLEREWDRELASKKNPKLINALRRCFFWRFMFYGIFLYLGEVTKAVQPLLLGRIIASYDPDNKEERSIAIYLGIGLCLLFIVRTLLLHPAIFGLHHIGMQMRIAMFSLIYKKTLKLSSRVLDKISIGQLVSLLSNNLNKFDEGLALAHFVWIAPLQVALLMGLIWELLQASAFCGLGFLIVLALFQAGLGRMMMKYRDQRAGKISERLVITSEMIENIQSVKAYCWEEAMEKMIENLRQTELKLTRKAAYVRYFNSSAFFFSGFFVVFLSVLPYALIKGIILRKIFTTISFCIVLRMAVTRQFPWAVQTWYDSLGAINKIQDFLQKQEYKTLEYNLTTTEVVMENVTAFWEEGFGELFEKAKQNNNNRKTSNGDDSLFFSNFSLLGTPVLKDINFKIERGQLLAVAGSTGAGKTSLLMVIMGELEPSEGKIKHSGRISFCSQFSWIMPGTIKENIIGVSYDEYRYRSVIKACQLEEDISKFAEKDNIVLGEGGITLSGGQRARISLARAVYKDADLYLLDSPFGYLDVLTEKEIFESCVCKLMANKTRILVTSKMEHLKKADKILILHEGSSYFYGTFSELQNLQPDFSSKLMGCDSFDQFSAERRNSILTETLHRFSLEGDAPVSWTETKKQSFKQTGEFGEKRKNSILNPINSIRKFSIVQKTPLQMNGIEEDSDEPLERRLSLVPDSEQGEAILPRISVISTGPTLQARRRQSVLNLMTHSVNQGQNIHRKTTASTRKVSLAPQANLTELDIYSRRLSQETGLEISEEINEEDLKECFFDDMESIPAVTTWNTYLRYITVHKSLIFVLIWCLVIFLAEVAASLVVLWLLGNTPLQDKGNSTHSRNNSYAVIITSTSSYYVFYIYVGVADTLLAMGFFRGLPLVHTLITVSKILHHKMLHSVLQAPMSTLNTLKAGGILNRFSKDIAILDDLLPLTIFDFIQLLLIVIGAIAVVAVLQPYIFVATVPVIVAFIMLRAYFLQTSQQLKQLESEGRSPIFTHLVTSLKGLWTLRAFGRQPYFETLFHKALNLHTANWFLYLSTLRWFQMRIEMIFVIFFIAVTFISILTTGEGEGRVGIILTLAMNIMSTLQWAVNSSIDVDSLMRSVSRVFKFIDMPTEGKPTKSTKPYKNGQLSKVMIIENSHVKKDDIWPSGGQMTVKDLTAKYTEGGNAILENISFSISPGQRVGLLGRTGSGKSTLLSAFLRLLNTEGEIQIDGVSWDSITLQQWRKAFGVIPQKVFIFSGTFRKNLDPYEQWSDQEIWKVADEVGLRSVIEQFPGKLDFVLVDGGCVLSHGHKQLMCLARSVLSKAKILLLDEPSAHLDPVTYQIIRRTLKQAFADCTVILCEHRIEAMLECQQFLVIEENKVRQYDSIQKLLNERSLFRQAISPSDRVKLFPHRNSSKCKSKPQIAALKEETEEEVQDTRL
T5 sequence (P13569 whole entry G178R): as the sequence (P13569 whole entry G551D) above, with G178R, D551G counted along it
T3 sequence (P13569 whole entry S549N): as the sequence (P13569 whole entry G551D) above, with S549N, D551G counted along it

SMILES	% Activation (CFTR G551D mutant) [%]	EC50 (CFTR G551D mutant) [nM]	% Activation (CFTR ΔF508 mutant) [%]	EC50 (CFTR ΔF508 mutant) [nM]	% Activation (CFTR-S549N) [%]	EC50 (CFTR-S549N) [nM]	% Activation (CFTR-R117H) [%]	EC50 (CFTR-R117H) [nM]	% Activation (CFTR-G178R) [%]	EC50 (CFTR-G178R) [nM]	% Activation (CFTR-G1349D) [%]	EC50 (CFTR-G1349D) [nM]
Nc1cc(S(=O)(=O)c2ccc(OC(F)(F)F)cc2)cnc1C(=O)N[C@@H]1COCC[C@@H]1O (racemic) [Compound 33, rac-3-amino-N-[(3R,4S)-4-hydroxytetrahydro-2H-pyran-3-yl]-5-{[4-(trifluoromethoxy)phenyl]sulfonyl}pyridine-2-carboxamide]	62.3	1390	98.6	42.8	82.2	735	87.1	628	81.8	514	92.9	543
CC(C)NC(=O)CNC(=O)c1ncc(S(=O)(=O)c2ccc(OC(F)(F)F)cc2)cc1N [Compound 57, 3-amino-N-[2-oxo-2-(propan-2-ylamino)ethyl]-5-{[4-(trifluoromethoxy)phenyl]sulfonyl}pyridine-2-carboxamide]	51.8	385	93.1	7.1			72.8	356			59.6	457
Nc1cc(S(=O)(=O)c2ccc(C(F)(F)F)cc2)cnc1C(=O)NC[C@@H](O)C(F)(F)F [Compound 63, 3-amino-N-[(2R)-3,3,3-trifluoro-2-hydroxypropyl]-5-{[4-(trifluoromethyl)phenyl]sulfonyl}pyridine-2-carboxamide]	60.8	262	102.0	3.1			89.3	152			82.8	256
CC1(O)CN(C(=O)c2ncc(S(=O)(=O)c3ccc(C(F)(F)F)cc3)cc2N)C1 [Compound 91, (3-amino-5-{[4-(trifluoromethyl)phenyl]sulfonyl}pyridin-2-yl) (3-hydroxy-3-methylazetidin-1-yl)methanone]	56.1	810	97.2	11.5			89.6	326			76.6	738
Nc1cc(S(=O)(=O)c2ccc(C(F)(F)F)cc2)cnc1C(=O)N1CC(F)(F)C1 [Compound 103, (3-amino-5-{[4-(trifluoromethyl)phenyl]sulfonyl}pyridin-2-yl)(3,3-difluoroazetidin-1-yl)methanone]	52.6	368	110.0	26.2			87.8	351			67.7	448
CCOCC1(CNC(=O)c2ncc(S(=O)(=O)c3ccc(OC(F)(F)F)cc3)cc2N)CCC1 [Compound 118, 3-amino-N-{[1-(ethoxymethyl)cyclobutyl]methyl}-5-{[4-(trifluoromethoxy)phenyl]sulfonyl}pyridine-2-carboxamide]	49.5	419	93.2	208			90.7	621			99.5	770
Nc1cc(S(=O)(=O)c2ccc(OC(F)(F)F)cc2)cnc1C(=O)N1CC(OCC(F)F)C1 [Compound 119, (3-amino-5-{[4-(trifluoromethoxy)phenyl]sulfonyl}pyridin-2-yl)[3-(2,2-difluoroethoxy)azetidin-1-yl]methanone]	64.6	554	101.0	34.1			89.9	307			84.8	320
CCC1(F)CN(C(=O)c2ncc(S(=O)(=O)c3ccc(OC(F)(F)F)cc3)cc2N)C1 [Compound 130, (3-amino-5-{[4-(trifluoromethoxy)phenyl]sulfonyl}pyridin-2-yl)(3-ethyl-3-fluoroazetidin-1-yl)methanone]	78.3	674	93.9	102			77.6	580			55.4	703
COCC1(C)CN(C(=O)c2ncc(S(=O)(=O)c3ccc(OC(F)(F)F)cc3)cc2N)C1 [Compound 154, (3-amino-5-{[4-(trifluoromethoxy)phenyl]sulfonyl}pyridin-2-yl)[3-(methoxymethyl)-3-methylazetidin-1-yl]methanone]	81.9	881	98.1	66.3			107.0	499			97.6	637
C[C@H](O)CNC(=O)c1nc(OCCN(C)C)c(S(=O)(=O)c2ccc(OC(F)(F)F)cc2)cc1N [Compound 289, 3-amino-6-[2-(dimethylamino)ethoxy]-N-[(2S)-2-hydroxypropyl]-5-{[4-(trifluoromethoxy)phenyl]sulfonyl}pyridine-2-carboxamide]	31.0		97.1	245								
C[C@H](O)CNC(=O)c1nc(C2CC2)c(S(=O)(=O)c2ccc(OC(F)(F)F)cc2)cc1N [Compound 290, 3-amino-6-cyclopropyl-N-[(2S)-2-hydroxypropyl]-5-{[4-(trifluoromethoxy)phenyl]sulfonyl}pyridine-2-carboxamide]	73.2	473	88.2	3								
Nc1cc(S(=O)(=O)c2ccc(C(F)(F)F)cc2)cnc1C(=O)NC1(CO)CC1 [Compound 292, 3-amino-N-[1-(hydroxymethyl)cyclopropyl]-5-{[4-(trifluoromethyl)phenyl]sulfonyl}pyridine-2-carboxamide]	28.5	> 10000	72.4	263								
CO[C@H]1CCC[C@@H]1NC(=O)c1ncc(S(=O)(=O)c2ccc(C(F)(F)F)cc2)cc1N [Compound 293, 3-amino-N-[(1S,2S)-2-methoxycyclopentyl]-5-{[4-(trifluoromethyl)phenyl]sulfonyl}pyridine-2-carboxamide]	40.8	> 3330	87.8	135								
CC1(F)CN(C(=O)c2ncc(S(=O)(=O)c3ccc(C(F)(F)F)cc3)cc2N)C1 [Compound 294, (3-amino-5-{[4-(trifluoromethyl)phenyl]sulfonyl}pyridin-2-yl)(3-fluoro-3-methylazetidin-1-yl)methanone]	104.0	967	97.5	9.6								
Nc1cc(S(=O)(=O)c2ccc(C(F)(F)F)cc2)cnc1C(=O)N1CC2(CCCOC2)C1 [Compound 295, (3-amino-5-{[4-(trifluoromethyl)phenyl]sulfonyl}pyridin-2-yl)(6-oxa-2-azaspiro[3.5]non-2-yl)methanone]	92.7	1970	102.3	51.3								
NC(=O)c1ncc(S(=O)(=O)c2ccc(OC(F)(F)F)cc2)cc1N [Compound 297, 3-amino-5-{[4-(trifluoromethoxy)phenyl]sulfonyl}pyridine-2-carboxamide]	85	518	109	53								
